Laboratory results reported in PubChem BioAssay (NCI).
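Values below derive from 48-hour exposures of cells grown in 96-well plates, with endpoints linearly interpolated between the two concentrations bracketing the appropriate inhibition level. TGI: total growth inhibition.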

How the values were obtained:
Assay in all cases: NCI-60 cell line screen, 48 h
786-0 renal = tested on: 786-0 renal
A498 renal = tested on: A498 renal
A549 NSCLC = tested on: A549 NSCLC
ACHN renal = tested on: ACHN renal
CAKI-1 renal = tested on: CAKI-1 renal
CCRF-CEM leukemia = tested on: CCRF-CEM leukemia
COLO 205 colon = tested on: COLO 205 colon
DLD-1 colon = tested on: DLD-1 colon
DMS 114 small cell lung = tested on: DMS 114 small cell lung
DMS 273 small cell lung = tested on: DMS 273 small cell lung
EKVX NSCLC = tested on: EKVX NSCLC
HCC-2998 colon = tested on: HCC-2998 colon
HCT-116 colon = tested on: HCT-116 colon
HCT-15 colon = tested on: HCT-15 colon
HL-60(TB) leukemia = tested on: HL-60(TB) leukemia
HOP-18 NSCLC = tested on: HOP-18 NSCLC
HOP-62 NSCLC = tested on: HOP-62 NSCLC
HOP-92 NSCLC = tested on: HOP-92 NSCLC
HT29 colon = tested on: HT29 colon
IGROV1 ovarian = tested on: IGROV1 ovarian
K-562 leukemia = tested on: K-562 leukemia
KM12 colon = tested on: KM12 colon
KM20L2 colon = tested on: KM20L2 colon
LOX IMVI melanoma = tested on: LOX IMVI melanoma
LXFL 529 NSCLC = tested on: LXFL 529 NSCLC
M14 melanoma = tested on: M14 melanoma
M19-MEL melanoma = tested on: M19-MEL melanoma
MALME-3M melanoma = tested on: MALME-3M melanoma
MOLT-4 leukemia = tested on: MOLT-4 leukemia
NCI-H23 lung = tested on: NCI-H23 lung
NCI-H460 lung = tested on: NCI-H460 lung
NCI-H522 lung = tested on: NCI-H522 lung
OVCAR-3 ovarian = tested on: OVCAR-3 ovarian
OVCAR-4 ovarian = tested on: OVCAR-4 ovarian
OVCAR-5 ovarian = tested on: OVCAR-5 ovarian
OVCAR-8 ovarian = tested on: OVCAR-8 ovarian
RPMI-8226 leukemia = tested on: RPMI-8226 leukemia
RXF 393 renal = tested on: RXF 393 renal
SF-268 CNS = tested on: SF-268 CNS
SF-295 CNS = tested on: SF-295 CNS
SF-539 CNS = tested on: SF-539 CNS
SK-MEL-2 melanoma = tested on: SK-MEL-2 melanoma
SK-MEL-5 melanoma = tested on: SK-MEL-5 melanoma
SK-OV-3 ovarian = tested on: SK-OV-3 ovarian
SN12C renal = tested on: SN12C renal
SNB-19 CNS = tested on: SNB-19 CNS
SNB-75 CNS = tested on: SNB-75 CNS
SNB-78 CNS = tested on: SNB-78 CNS
SW-620 colon = tested on: SW-620 colon
TK-10 renal = tested on: TK-10 renal
U251 CNS = tested on: U251 CNS
UACC-257 melanoma = tested on: UACC-257 melanoma
UACC-62 melanoma = tested on: UACC-62 melanoma
UO-31 renal = tested on: UO-31 renal
XF 498 CNS = tested on: XF 498 CNS
NCI-H226 lung = tested on: NCI-H226 lung
SK-MEL-28 melanoma = tested on: SK-MEL-28 melanoma
SR leukemia = tested on: SR leukemia

SMILES: Cc1nnc2n1N=C(c1ccccc1)C(c1ccccc1)S2 (stereo not given)
- TGI (786-0 renal): > 100 µM
- TGI (A498 renal): > 100 µM
- TGI (A549 NSCLC): > 100 µM
- TGI (ACHN renal): > 100 µM
- TGI (CAKI-1 renal): > 100 µM
- TGI (CCRF-CEM leukemia): 77.1 µM
- TGI (COLO 205 colon): 41.8 µM
- TGI (DLD-1 colon): > 100 µM
- TGI (DMS 114 small cell lung): 52.4 µM
- TGI (DMS 273 small cell lung): > 100 µM
- TGI (EKVX NSCLC): > 100 µM
- TGI (HCC-2998 colon): > 100 µM
- TGI (HCT-116 colon): > 100 µM
- TGI (HCT-15 colon): > 100 µM
- TGI (HL-60(TB) leukemia): 64.5 µM
- TGI (HOP-18 NSCLC): > 100 µM
- TGI (HOP-62 NSCLC): > 100 µM
- TGI (HOP-92 NSCLC): > 100 µM
- TGI (HT29 colon): > 100 µM
- TGI (IGROV1 ovarian): > 100 µM
- TGI (K-562 leukemia): > 100 µM
- TGI (KM12 colon): > 100 µM
- TGI (KM20L2 colon): 76.3 µM
- TGI (LOX IMVI melanoma): > 100 µM
- TGI (LXFL 529 NSCLC): > 100 µM
- TGI (M14 melanoma): 46.5 µM
- TGI (M19-MEL melanoma): > 100 µM
- TGI (MALME-3M melanoma): > 100 µM
- TGI (MOLT-4 leukemia): > 100 µM
- TGI (NCI-H23 lung): 64 µM
- TGI (NCI-H460 lung): > 100 µM
- TGI (NCI-H522 lung): 57.7 µM
- TGI (OVCAR-3 ovarian): > 100 µM
- TGI (OVCAR-4 ovarian): > 100 µM
- TGI (OVCAR-5 ovarian): > 100 µM
- TGI (OVCAR-8 ovarian): > 100 µM
- TGI (RPMI-8226 leukemia): > 100 µM
- TGI (RXF 393 renal): 85.7 µM
- TGI (SF-268 CNS): > 100 µM
- TGI (SF-295 CNS): > 100 µM
- TGI (SF-539 CNS): 72.4 µM
- TGI (SK-MEL-2 melanoma): > 100 µM
- TGI (SK-MEL-5 melanoma): > 100 µM
- TGI (SK-OV-3 ovarian): 68.2 µM
- TGI (SN12C renal): > 100 µM
- TGI (SNB-19 CNS): > 100 µM
- TGI (SNB-75 CNS): 79.7 µM
- TGI (SNB-78 CNS): > 100 µM
- TGI (SW-620 colon): 26.8 µM
- TGI (TK-10 renal): > 100 µM
- TGI (U251 CNS): 72 µM
- TGI (UACC-257 melanoma): > 100 µM
- TGI (UACC-62 melanoma): > 100 µM
- TGI (UO-31 renal): > 100 µM
- TGI (XF 498 CNS): > 100 µM

SMILES: Cc1c(C)c([N+](=O)[O-])c2c(c1N)C(=O)c1ccccc1C2=O
- TGI (786-0 renal): > 100 µM
- TGI (A498 renal): > 100 µM
- TGI (A549 NSCLC): > 100 µM
- TGI (ACHN renal): > 100 µM
- TGI (CCRF-CEM leukemia): > 100 µM
- TGI (COLO 205 colon): > 100 µM
- TGI (DLD-1 colon): > 100 µM
- TGI (DMS 114 small cell lung): > 100 µM
- TGI (DMS 273 small cell lung): > 100 µM
- TGI (EKVX NSCLC): > 100 µM
- TGI (HCC-2998 colon): > 100 µM
- TGI (HCT-116 colon): > 100 µM
- TGI (HCT-15 colon): > 100 µM
- TGI (HL-60(TB) leukemia): > 100 µM
- TGI (HOP-18 NSCLC): > 100 µM
- TGI (HOP-62 NSCLC): > 100 µM
- TGI (HOP-92 NSCLC): > 100 µM
- TGI (HT29 colon): > 100 µM
- TGI (IGROV1 ovarian): > 100 µM
- TGI (K-562 leukemia): > 100 µM
- TGI (KM12 colon): > 100 µM
- TGI (KM20L2 colon): > 100 µM
- TGI (LOX IMVI melanoma): > 100 µM
- TGI (LXFL 529 NSCLC): > 100 µM
- TGI (M14 melanoma): > 100 µM
- TGI (M19-MEL melanoma): > 100 µM
- TGI (MALME-3M melanoma): > 100 µM
- TGI (MOLT-4 leukemia): > 100 µM
- TGI (NCI-H226 lung): > 100 µM
- TGI (NCI-H23 lung): > 100 µM
- TGI (NCI-H522 lung): > 100 µM
- TGI (OVCAR-3 ovarian): > 100 µM
- TGI (OVCAR-5 ovarian): > 100 µM
- TGI (OVCAR-8 ovarian): > 100 µM
- TGI (RPMI-8226 leukemia): > 100 µM
- TGI (RXF 393 renal): > 100 µM
- TGI (SF-268 CNS): > 100 µM
- TGI (SF-295 CNS): > 100 µM
- TGI (SF-539 CNS): > 100 µM
- TGI (SK-MEL-2 melanoma): > 100 µM
- TGI (SK-MEL-28 melanoma): > 100 µM
- TGI (SK-MEL-5 melanoma): > 100 µM
- TGI (SK-OV-3 ovarian): > 100 µM
- TGI (SN12C renal): > 100 µM
- TGI (SNB-19 CNS): > 100 µM
- TGI (SNB-75 CNS): > 100 µM
- TGI (SNB-78 CNS): > 100 µM
- TGI (SR leukemia): > 100 µM
- TGI (SW-620 colon): > 100 µM
- TGI (TK-10 renal): > 100 µM
- TGI (U251 CNS): > 100 µM
- TGI (UACC-257 melanoma): > 100 µM
- TGI (UACC-62 melanoma): > 100 µM
- TGI (UO-31 renal): > 100 µM
- TGI (XF 498 CNS): > 100 µM
